Data on 11 compounds can be found in patent US8383581B2, “Short-chain peptides as parathyroid hormone (PTH) receptor agonist” (Cadila Healthcare Limited, priority 2009, dated 2013).

Structures are written as SMILES. Where a SMILES comes first, the peptide text is derived from it. [ ]: non-standard residue; d: D form. ξ: configuration not given here. ξαMeBip(2'-Et,4'-OMe) = CCc1cc(OC)ccc1-c1ccc(CC(C)(N)C(=O)O)cc1; ξBip(2'-Et-4'-OMe) = CCc1cc(OC)ccc1-c1ccc(CC(N)C(=O)O)cc1; Arg(NO2) = N=C(NCCC[C@H](N)C(=O)O)N[N+](=O)[O-]; ξαMePhe(2,6-F2) = CC(N)(Cc1c(F)cccc1F)C(=O)O; ξαMe(hhPhe) = CC(N)(CCCc1ccccc1)C(=O)O; hArg = N=C(N)NCCCC[C@H](N)C(=O)O; hCit = NC(=O)NCCCC[C@H](N)C(=O)O; Cit = NC(=O)NCCC[C@H](N)C(=O)O; ξhhPhe = NC(CCCc1ccccc1)C(=O)O; ξαMeF = CC(N)(Cc1ccccc1)C(=O)O; NMeV = CN[C@H](C(=O)O)C(C)C; ξαMeNle = CCCCC(C)(N)C(=O)O; Nle = CCCC[C@H](N)C(=O)O; Ac5c = NC1(C(=O)O)CCCC1; Ac3c = NC1(C(=O)O)CC1; Aib = CC(C)(N)C(=O)O

For the assay, the system named is ovariectomised (OVX) rats. As to the kind of experiment: In vivo anti-osteoporosis activity testing in OVX rat model (serum calcium, phosphate, bone parameters). Also noted: species or system Female Wistar Rats. As to conditions: po. The text has this:
c) In Vivo Anti-Osteoporosis Activity Testing in OVX Rat Model: The ovariectomised (OVX) rats were used to study anti-osteoporosis activity of test compounds (short-chain peptides) in vivo. The OVX rats develop osteopenia due to ovarian hormone deficiency. Osteopenia can be detected as early as 14 days post OVX, increase for the next 100 days and then stabilised (Wronski T. J., et al., Calcif. Tissue Int., 43(3), 1988, 179-183). Detailed Study Protocol to Evaluate the Effects of Anabolic Therapy on Bone Markers and Histomorphometry in OVX Animals: 10 to 11 weeks old Female Wistar Rats (150-200 g) were used. The animals were kept in individually ventilated cages in a room with controlled temperature (23°±3° C.), lighting (12:12 h light-dark cycle) and relative humidity (55±10%). Animals had free access to standard rat chow and water. Protocol for use of animals for conducting this study has been reviewed and approved by Institutional Animal Ethics Committee (IAEC). The animals were marked with picric acid for identification and acclimatized to experimental room conditions for 2 days prior to initiation of the study. For the induction of osteoporosis, rats were bilaterally ovariectomised under anesthesia. For Ovariectomy, Incision was made on dorsa-lateral side near lumbar region of animal. After that, ovary was excised and the veins were tied with ligature before removing ovary to prevent blood loss. Then incision was sutured back with ligature. After Bilateral ovariectomy, animals were allowed to rest for 4 weeks. They were then divided into different groups (n=9) based on their body weight. The groups consisted of a no treatment control, PTH as standard and one or two groups of test compounds (short-chain peptides). The treatment was given for the duration of 6 weeks. At the last day of treatment animals were kept overnight in metabolic cages under fasting for the collection of Urine. Next day, blood was collected after 24 hours of last dosing and animals were sacrificed. Changes in biochemical parameters and bone turnover parameters (Increase in serum Calcium and decrease in Phosphate levels, Acid Phosphatase and TRAP) were evaluated in the urine and serum. After sacrificing, intact femur and tibial bones are removed and cleaned from adherent tissues, muscles and tendons; weighed and collected in formal saline (10% formaldehyde solution). Lumbar vertebra (L5) was excised, carefully cleaned and collected in formal saline. Femur, tibia and Lumbar vertebra-5 (L5) were later processed for histomorphometric evaluation (Zhang L., et al., Tohoku J Exp Med., 1998, 186(2), 131-41; Tanizawa T., et al., Toxicol Lett., 1998, 102, 399-403).

For `CCCC[C@H](NC(=O)C(C)(Cc1c(F)cccc1F)NC(=O)[C@H](CCC(N)=O)NC(=O)[C@@H](NC(=O)[C@H](CCC(=O)O)NC(=O)C(C)(C)NC(=O)[C@@H](NC(=O)C1(N)CCCC1)C(C)C)[C@@H](C)CC)C(=O)N[C@@H](Cc1c[nH]cn1)C(=O)N[C@@H](CCC(N)=O)C(=O)N[C@@H](CCCNC(N)=O)C(=O)N[C@@H](C)C(=O)NC(C)(Cc1c(F)cccc1F)C(=O)NC(C)(Cc1c(F)cccc1F)C(N)=O` (stereo partly shown) [Seq. ID. 391] (H-[Ac5c]V[Aib]EIQ[ξαMePhe(2,6-F2)][Nle]HQ[Cit]A[ξαMePhe(2,6-F2)][ξαMePhe(2,6-F2)]-NH2), under “0.1 mg/kg”, the “% decrease in serum PO4 Levels (mg/dl) vs control” value (from here on “% decrease in serum PO4 Levels”) came out at 59% and the “% increase in serum Ca^2+ Levels (mg/dl) vs control” value (“% increase in serum Ca^2+ Levels” for short) came to 82%.

With `CCc1cc(OC)ccc1-c1ccc(CC(C)(NC(=O)[C@H](CCCCNC(=N)N)NC(=O)[C@H](C)NC(=O)[C@H](CCCCNC(=N)N)NC(=O)[C@H](CCC(N)=O)NC(=O)[C@H](Cc2c[nH]cn2)NC(=O)[C@H](CCSC)NC(=O)[C@H](CC(C)C)NC(=O)[C@H](CCC(N)=O)NC(=O)[C@@H](NC(=O)[C@H](CCC(=O)O)NC(=O)C(C)(C)NC(=O)[C@@H](NC(=O)C(C)(C)NC(=O)[C@@H](N)C(C)C)C(C)C)[C@@H](C)CC)C(=O)NC(CCCc2ccccc2)C(N)=O)cc1` (stereo partly shown) [Seq. ID. 902] (H-V[Aib]V[Aib]EIQLMHQ[hArg]A[hArg][ξαMeBip(2'-Et,4'-OMe)][ξhhPhe]-NH2), where the note is “0.8 mg/kg”, the “% decrease in serum PO4 Levels” value was 98% and the “% increase in serum Ca^2+ Levels” value was 110%.

For `CCCCC(C)(NC(=O)[C@H](CC(C)C)NC(=O)[C@H](CCC(N)=O)NC(=O)[C@@H](NC(=O)[C@H](CCC(=O)O)NC(=O)C(C)(C)NC(=O)[C@@H](NC(=O)C1(NC(=O)[C@@H](NC)C(C)C)CCCC1)C(C)C)[C@@H](C)CC)C(=O)N[C@@H](Cc1c[nH]cn1)C(=O)N[C@@H](CCC(N)=O)C(=O)N[C@@H](CCCCNC(=N)N)C(=O)N[C@@H](C)C(=O)N[C@@H](CCCCNC(=N)N)C(=O)NC(Cc1ccc(-c2ccc(OC)cc2CC)cc1)C(=O)NC(C)(CCCc1ccccc1)C(N)=O` (stereo partly shown) [Seq. ID. 929] (H-[NMeV][Ac5c]V[Aib]EIQL[ξαMeNle]HQ[hArg]A[hArg][ξBip(2'-Et-4'-OMe)][ξαMe(hhPhe)]-NH2), under “2 mg/kg”, the “% decrease in serum PO4 Levels” value is listed as 90% and the “% increase in serum Ca^2+ Levels” value came out at 121%.

`CCCC[C@H](NC(=O)[C@H](CC(C)C)NC(=O)[C@H](CCC(N)=O)NC(=O)[C@@H](NC(=O)[C@H](CCC(=O)O)NC(=O)C(C)(C)NC(=O)[C@@H](NC(=O)C1(N)CCCC1)C(C)C)[C@@H](C)CC)C(=O)N[C@@H](Cc1c[nH]cn1)C(=O)N[C@@H](CCC(N)=O)C(=O)N[C@@H](CCCCNC(=N)N)C(=O)N[C@@H](C)C(=O)N[C@@H](CCCNC(=N)N[N+](=O)[O-])C(=O)NC(Cc1ccc(-c2ccc(OC)cc2CC)cc1)C(=O)NC(CCCc1ccccc1)C(N)=O` (stereo partly shown) [Seq. ID. 686] (H-[Ac5c]V[Aib]EIQL[Nle]HQ[hArg]A[Arg(NO2)][ξBip(2'-Et-4'-OMe)][ξhhPhe]-NH2): under “3 mg/kg”, the “% decrease in serum PO4 Levels” value amounted to 80% and the “% increase in serum Ca^2+ Levels” value was determined as 84%.

With `CCCC[C@H](NC(=O)[C@H](CC(C)C)NC(=O)[C@H](CCC(N)=O)NC(=O)[C@@H](NC(=O)[C@H](CCC(=O)O)NC(=O)C(C)(C)NC(=O)[C@@H](NC(=O)C1(N)CC1)C(C)C)[C@@H](C)CC)C(=O)N[C@@H](Cc1c[nH]cn1)C(=O)N[C@@H](CCC(N)=O)C(=O)N[C@@H](CCCCNC(=N)N)C(=O)N[C@@H](C)C(=O)N[C@@H](CCCCN)C(=O)NC(Cc1ccc(-c2ccc(OC)cc2CC)cc1)C(N)=O` (stereo partly shown) [Seq. ID. 649] (H-[Ac3c]V[Aib]EIQL[Nle]HQ[hArg]AK[ξBip(2'-Et-4'-OMe)]-NH2), under “2 mg/kg”, the “% decrease in serum PO4 Levels” value stood at 82% and the “% increase in serum Ca^2+ Levels” value is given as 86%.

With `CCCC[C@H](NC(=O)[C@H](CC(C)C)NC(=O)[C@H](CCC(N)=O)NC(=O)[C@@H](NC(=O)[C@H](CCC(=O)O)NC(=O)C(C)(C)NC(=O)[C@@H](NC(=O)C(C)(C)N)C(C)C)[C@@H](C)CC)C(=O)N[C@@H](Cc1c[nH]cn1)C(=O)N[C@@H](CCC(N)=O)C(=O)N[C@@H](CCCCNC(=N)N)C(=O)NC(C)(C)C(=O)NC(C)(C)C(=O)NC(Cc1ccc(-c2ccc(OC)cc2CC)cc1)C(=O)NC(CCCc1ccccc1)C(N)=O` (stereo partly shown) [Seq. ID. 742] (H-[Aib]V[Aib]EIQL[Nle]HQ[hArg][Aib][Aib][ξBip(2'-Et-4'-OMe)][ξhhPhe]-NH2), under “0.1 mg/kg”, the “% decrease in serum PO4 Levels” value came to 92% and the “% increase in serum Ca^2+ Levels” value came to 89%.

With `CCCC[C@H](NC(=O)C(C)(Cc1c(F)cccc1F)NC(=O)[C@H](CCC(N)=O)NC(=O)[C@@H](NC(=O)[C@H](CCC(=O)O)NC(=O)C(C)(C)NC(=O)[C@@H](NC(=O)C(C)(C)N)C(C)C)[C@@H](C)CC)C(=O)N[C@@H](Cc1c[nH]cn1)C(=O)N[C@@H](CCC(N)=O)C(=O)N[C@@H](CCCCNC(N)=O)C(=O)N[C@@H](C)C(=O)N[C@@H](CCCNC(=N)N[N+](=O)[O-])C(=O)NC(C)(Cc1c(F)cccc1F)C(N)=O` (stereo partly shown) [Seq. ID. 469] (H-[Aib]V[Aib]EIQ[ξαMePhe(2,6-F2)][Nle]HQ[hCit]A[Arg(NO2)][ξαMePhe(2,6-F2)]-NH2), for the setting “0.01 mg/kg”, the “% decrease in serum PO4 Levels” value is given as 65% and the “% increase in serum Ca^2+ Levels” value was 43%.

With `CCCC[C@H](NC(=O)C(C)(Cc1c(F)cccc1F)NC(=O)[C@H](CCC(N)=O)NC(=O)[C@@H](NC(=O)[C@H](CCC(=O)O)NC(=O)C1(NC(=O)[C@@H](NC(=O)C2(N)CCCC2)C(C)C)CCCC1)[C@@H](C)CC)C(=O)N[C@@H](Cc1c[nH]cn1)C(=O)N[C@@H](CCC(N)=O)C(=O)N[C@@H](CCCCNC(=N)N)C(=O)NC(C)(C)C(=O)N[C@@H](CCCCN)C(=O)NC(C)(Cc1c(F)cccc1F)C(N)=O` (stereo partly shown) [Seq. ID. 117] (H-[Ac5c]V[Ac5c]EIQ[ξαMePhe(2,6-F2)][Nle]HQ[hArg][Aib]K[ξαMePhe(2,6-F2)]-NH2), for the setting “3 mg/kg”, the “% decrease in serum PO4 Levels” value is recorded as 99% and the “% increase in serum Ca^2+ Levels” value is given as 110%.

As for `CCCC[C@H](NC(=O)[C@H](CC(C)C)NC(=O)[C@H](CCC(N)=O)NC(=O)[C@@H](NC(=O)[C@H](CCC(=O)O)NC(=O)C(C)(C)NC(=O)[C@@H](NC(=O)C1(N)CCCC1)C(C)C)[C@@H](C)CC)C(=O)N[C@@H](Cc1c[nH]cn1)C(=O)N[C@@H](CCC(N)=O)C(=O)NC(C)(Cc1c(F)cccc1F)C(=O)N[C@@H](C)C(=O)NC(C)(Cc1c(F)cccc1F)C(=O)NC(Cc1ccc(-c2ccc(OC)cc2CC)cc1)C(=O)NC(CCCc1ccccc1)C(N)=O` (stereo partly shown) [Seq. ID. 801] (H-[Ac5c]V[Aib]EIQL[Nle]HQ[ξαMePhe(2,6-F2)]A[ξαMePhe(2,6-F2)][ξBip(2'-Et-4'-OMe)][ξhhPhe]-NH2), where the note is “3 mg/kg”, the “% decrease in serum PO4 Levels” value was determined as 65% and the “% increase in serum Ca^2+ Levels” value is 59%.

On to `CCc1cc(OC)ccc1-c1ccc(CC(NC(=O)[C@H](CCCCN)NC(=O)[C@H](C)NC(=O)[C@H](CCCCNC(=N)N)NC(=O)[C@H](CCC(N)=O)NC(=O)[C@H](Cc2c[nH]cn2)NC(=O)[C@H](CCSC)NC(=O)[C@H](CC(C)C)NC(=O)[C@H](CCC(N)=O)NC(=O)[C@@H](NC(=O)[C@H](CCC(=O)O)NC(=O)C2(NC(=O)[C@@H](NC(=O)C(C)(C)N)C(C)C)CC2)[C@@H](C)CC)C(=O)NC(CCCc2ccccc2)C(N)=O)cc1` (stereo partly shown) [Seq. ID. 607] (H-[Aib]V[Ac3c]EIQLMHQ[hArg]AK[ξBip(2'-Et-4'-OMe)][ξhhPhe]-NH2), for which, where the note is “0.01 mg/kg”, the “% decrease in serum PO4 Levels” value is 88% and the “% increase in serum Ca^2+ Levels” value amounted to 78%.

With `CCCC[C@H](NC(=O)C(C)(Cc1c(F)cccc1F)NC(=O)[C@H](CCC(N)=O)NC(=O)[C@@H](NC(=O)[C@H](CCC(=O)O)NC(=O)C(C)(C)NC(=O)[C@@H](NC(=O)C1(N)CC1)C(C)C)[C@@H](C)CC)C(=O)N[C@@H](Cc1c[nH]cn1)C(=O)N[C@@H](CCC(N)=O)C(=O)N[C@@H](CCCCNC(=N)N)C(=O)N[C@@H](C)C(=O)N[C@@H](CCCCN)C(=O)NC(C)(Cc1ccccc1)C(N)=O` (stereo partly shown) [Seq. ID. 39] (H-[Ac3c]V[Aib]EIQ[ξαMePhe(2,6-F2)][Nle]HQ[hArg]AK[ξαMeF]-NH2), where the note is “0.03 mg/kg”, the “% decrease in serum PO4 Levels” value is 66% and the “% increase in serum Ca^2+ Levels” value was 88%.
